# Measured values taken from PubChem BioAssay (NCI).
# Several values for one entry are separate records, joined by “and”; a condition that tells them apart may be missing. Equal entries are not always repeated.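 Dose response: 5 concentrations. Exposure: 48 h. Format: 96-well plates. Endpoint: linear interpolation; highest concentration if not reached. At the GI50, growth is halved. TGI denotes the concentration required for complete inhibition of growth.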
# Experiments:
# Assay in all cases: DTP human tumour cell line panel, 48 h
# A498 renal = tested on: A498 renal
# NCI-H460 lung = tested on: NCI-H460 lung
# 786-0 renal = tested on: 786-0 renal
# KM12 colon = tested on: KM12 colon
# DU-145 prostate = tested on: DU-145 prostate
# HCT-15 colon = tested on: HCT-15 colon
# SW-620 colon = tested on: SW-620 colon
# SNB-75 CNS = tested on: SNB-75 CNS
# UACC-62 melanoma = tested on: UACC-62 melanoma
# RXF 393 renal = tested on: RXF 393 renal
# T-47D breast = tested on: T-47D breast
# ACHN renal = tested on: ACHN renal
# BT-549 breast = tested on: BT-549 breast
# MDA-MB-231 breast = tested on: MDA-MB-231 breast
# SF-268 CNS = tested on: SF-268 CNS
# U251 CNS = tested on: U251 CNS
# OVCAR-3 ovarian = tested on: OVCAR-3 ovarian
# COLO 205 colon = tested on: COLO 205 colon
# NCI/ADR-RES ovarian = tested on: NCI/ADR-RES ovarian
# HCC-2998 colon = tested on: HCC-2998 colon
# NCI-H522 lung = tested on: NCI-H522 lung
# HOP-92 NSCLC = tested on: HOP-92 NSCLC
# NCI-H226 lung = tested on: NCI-H226 lung
# SK-MEL-2 melanoma = tested on: SK-MEL-2 melanoma
# M14 melanoma = tested on: M14 melanoma
# PC-3 prostate = tested on: PC-3 prostate
# SK-MEL-28 melanoma = tested on: SK-MEL-28 melanoma
# MALME-3M melanoma = tested on: MALME-3M melanoma
# UACC-257 melanoma = tested on: UACC-257 melanoma
# HT29 colon = tested on: HT29 colon
# TK-10 renal = tested on: TK-10 renal
# EKVX NSCLC = tested on: EKVX NSCLC
# MCF7 breast = tested on: MCF7 breast
# MDA-MB-435 = tested on: MDA-MB-435
# OVCAR-5 ovarian = tested on: OVCAR-5 ovarian
# HOP-62 NSCLC = tested on: HOP-62 NSCLC
# RPMI-8226 leukemia = tested on: RPMI-8226 leukemia
# SK-OV-3 ovarian = tested on: SK-OV-3 ovarian
# SF-295 CNS = tested on: SF-295 CNS
# MDA-N = tested on: MDA-N
# OVCAR-4 ovarian = tested on: OVCAR-4 ovarian
# MOLT-4 leukemia = tested on: MOLT-4 leukemia
# A549 NSCLC = tested on: A549 NSCLC
# SNB-19 CNS = tested on: SNB-19 CNS
# IGROV1 ovarian = tested on: IGROV1 ovarian
# UO-31 renal = tested on: UO-31 renal
# OVCAR-8 ovarian = tested on: OVCAR-8 ovarian
# LOX IMVI melanoma = tested on: LOX IMVI melanoma
# SK-MEL-5 melanoma = tested on: SK-MEL-5 melanoma
# K-562 leukemia = tested on: K-562 leukemia
compound,measurement,setting,value
CC(=O)OC1(C)CC(C)C(=O)C(C(O)CC2CC(=O)NC(=O)C2)C1 (configuration not stated),TGI,A498 renal,266 nM and 86.3 nM
same,TGI,NCI-H460 lung,363 nM and 224 nM
same,TGI,786-0 renal,66.9 nM
same,TGI,KM12 colon,164 nM and 327 nM
same,TGI,DU-145 prostate,449 nM and 264 nM
same,TGI,HCT-15 colon,176 nM
same,TGI,SW-620 colon,129 nM
same,TGI,SNB-75 CNS,11.9 nM
same,TGI,UACC-62 melanoma,11.3 nM
same,TGI,RXF 393 renal,89.9 nM
same,TGI,T-47D breast,583 nM
same,TGI,ACHN renal,131 nM and 107 nM
same,GI50,BT-549 breast,14.8 nM
same,TGI,MDA-MB-231 breast,196 nM
same,TGI,SF-268 CNS,1420 nM
same,TGI,U251 CNS,21300 nM
same,TGI,OVCAR-3 ovarian,1620 nM
same,TGI,COLO 205 colon,180 nM and 40.4 nM
same,TGI,NCI/ADR-RES ovarian,744 nM and 341 nM
same,TGI,HCC-2998 colon,40.9 nM
same,TGI,NCI-H522 lung,146 nM
same,TGI,HOP-92 NSCLC,12.1 nM
same,GI50,NCI-H226 lung,10.8 nM
same,TGI,NCI-H226 lung,275 nM
same,TGI,SK-MEL-2 melanoma,806 nM and 438 nM
same,TGI,M14 melanoma,172 nM and 42.1 nM
same,TGI,PC-3 prostate,85.2 nM
same,TGI,SK-MEL-28 melanoma,134 nM and 688 nM
same,TGI,MALME-3M melanoma,375 nM and 753 nM
same,TGI,UACC-257 melanoma,348 nM and 145 nM
same,TGI,HT29 colon,133 nM
same,GI50,TK-10 renal,11.7 nM
same,TGI,TK-10 renal,164 nM
same,TGI,EKVX NSCLC,370 nM and 631 nM
same,TGI,MCF7 breast,81.3 nM
same,TGI,MDA-MB-435,272 nM and 733 nM
same,TGI,OVCAR-5 ovarian,293 nM and 2400 nM
same,TGI,HOP-62 NSCLC,68.3 nM
same,TGI,RPMI-8226 leukemia,16.2 nM
same,TGI,SK-OV-3 ovarian,1440 nM
same,TGI,SF-295 CNS,30 nM
same,TGI,MDA-N,204 nM and 215 nM
same,TGI,OVCAR-4 ovarian,178 nM and 27.7 nM
same,TGI,MOLT-4 leukemia,316 nM
same,TGI,A549 NSCLC,936 nM and 3320 nM
same,TGI,SNB-19 CNS,598 nM
same,TGI,IGROV1 ovarian,48.9 nM
same,TGI,UO-31 renal,643 nM and 389 nM
same,TGI,OVCAR-8 ovarian,965 nM and 406 nM
same,TGI,LOX IMVI melanoma,296 nM and 103 nM
same,TGI,SK-MEL-5 melanoma,147 nM and 23 nM
same,TGI,K-562 leukemia,32.2 nM
